≈ marks a conversion by molar mass, not a printed value.
Tests used:
PBP3 = target: T1, PBP3 (Escherichia coli, UniProt P0AD68); assay: thermal shift, ligand titration; assay type: binding; details: 2 μM PBP3, 25 min at room temperature before melt 35-70 °C; approximate affinity, not a Kd
T1 construct: gene ftsI
T1 sequence (P0AD68 44-588): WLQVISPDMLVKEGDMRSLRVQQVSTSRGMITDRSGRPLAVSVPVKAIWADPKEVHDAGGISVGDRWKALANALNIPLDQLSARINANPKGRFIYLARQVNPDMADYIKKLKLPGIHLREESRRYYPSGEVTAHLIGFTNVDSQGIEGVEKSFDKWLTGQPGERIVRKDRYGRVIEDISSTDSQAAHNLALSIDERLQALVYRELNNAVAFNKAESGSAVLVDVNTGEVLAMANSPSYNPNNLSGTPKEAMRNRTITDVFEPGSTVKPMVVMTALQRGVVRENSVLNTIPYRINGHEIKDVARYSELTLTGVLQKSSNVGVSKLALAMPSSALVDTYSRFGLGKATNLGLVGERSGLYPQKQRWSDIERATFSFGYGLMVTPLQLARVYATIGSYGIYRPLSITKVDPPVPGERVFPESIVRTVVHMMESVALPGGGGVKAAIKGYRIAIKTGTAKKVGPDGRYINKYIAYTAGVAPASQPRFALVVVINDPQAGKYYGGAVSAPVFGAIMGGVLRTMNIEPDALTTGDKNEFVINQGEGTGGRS

E. coli = tested on: T2, E. coli; set-up: species or system Escherichia coli BW25113; broth growth inhibition, OD600, fitted MIC from dose curve, LB, 37 C; details: 16 h; inhibitor
T2 construct: BW25113
Protocol: Stock solutions of each compound were prepared in 50% DMSO/water at ×100 the final concentration. In a 96-well plate, 2 μL of the test compounds were added to each well. Each plate included the positive control (750 μg mL^−1 chloramphenicol), the negative control (50% DMSO/water) and media only wells. To each test well was then added 198 μL of the required bacteria stock (OD 0.05). E. coli assays were carried out using LB broth, S. aureus were carried out using tryptic soy broth (TSB). Plates were incubated at 37 °C and the OD600 was measured (Epoch 2 Microplate Spectrophotometer, BioTek) every 30 min over a 17 h period. Tests were carried out in triplicate, the background absorbance was removed using reference wells, and the averages were determined. Dose curves were plotting using the OD600 after 16 h growth vs. compound concentration. MICs were defined as the minimum concentration of compound at which no significant growth was observed after 16 h incubation. MIC values were determined using GraphPad Prism (version 8.3.0). […] Further testing was carried out […] to determine whether the tethered compounds had any antibacterial activity. Table 2 summarises the MIC values determined for 1–12, MBC50 data is included in the ESI. ^†

Compound	equivalents required for >Tm1/2 (PBP3)	MIC (E. coli, best-fit) (E. coli)
CC1=C(C(=O)O)N2C(=O)[C@@H](NC(=O)[C@H](N)c3ccccc3)[C@H]2SC1 [compound 1, cephalexin]	75 equivalents	94.91 µM (≈ 33 µg/mL)
COCC1=C(C(=O)O)N2C(=O)[C@@H](NC(=O)/C(=N\OC)c3csc(N)n3)[C@H]2SC1 [compound 12, cefpodoxime]	–	7.744 µM (≈ 3.31 µg/mL)

Source: publication PMC9056950, “Synthesis and biochemical evaluation of cephalosporin analogues equipped with chemical tethers” (RSC Advances, 2020)
